tested on: Utrophin A promoter linked to a luciferase reporter gene; assay: Luciferase reporter assay (murine H2K cells); assay type: cell-based; conditions: Mus musculus, H2K mdx, luciferase level relative to control; H2K/mdx/Utro A reporter cells; compound 10 μM final concentration; read-out: Activity
In short: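 Compound at 10 μM final was applied for 48 hrs to plated H2K mdx myoblasts (33° C, 10% CO2, interferon-containing medium) bearing a luciferase gene under the utrophin A promoter. Luminescence from lysed cells served as read-out.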

Compound | activity at 10 µM [%]
Cc1ccc2oc(-c3ccc4ccccc4c3)nc2c1 [Example 458, 5-Methyl-2-(naphthalen-2-yl)benzo[d]oxazole] | > 401

same assay, conditions: luciferase reporter assay in murine H2K cells; classified relative to control

Compound | Activity
Clc1ccc(SCc2ccc(-c3nc4ccccc4[nH]3)cc2)cc1 [Example 460] | + (Up to 200% relative to control)
Clc1ccc(OCc2nc3ccccc3[nH]2)c(Cl)c1 [Example 461] | +++ (Between 301% and 400% relative to control)
Cc1ccc2sc(NC(=O)NC(=O)c3c(Cl)cccc3Cl)nc2c1 [Example 462] | + (Up to 200% relative to control)
c1csc(-c2nc3ccccc3[nH]2)c1 [Example 463] | + (Up to 200% relative to control)
O=C(Nc1cccc(-c2nc3ccccc3[nH]2)c1)c1ccccc1 [Example 464] | + (Up to 200% relative to control)
Clc1ccc(OCc2nc3ccccc3n2Cc2ccccc2Cl)c(Cl)c1 [Example 465] | + (Up to 200% relative to control)
Cc1nc2ccc(NC(=O)Nc3ccccc3)cc2o1 [Example 466] | + (Up to 200% relative to control)
CNC(=O)Nc1ccc2nc(C)oc2c1 [Example 467] | + (Up to 200% relative to control)
Cc1nc2ccc(NC(=O)NC(=O)c3ccccc3Cl)cc2o1 [Example 468] | + (Up to 200% relative to control)
Clc1ccc(-c2nc3cc(CN4CCCCC4)ccc3o2)cc1 [Example 469] | + (Up to 200% relative to control)
COc1ccc(-c2nc3ccccc3[nH]2)cc1 [Example 470] | ++ (Between 201% and 300% relative to control)
c1ccc(OCc2nc3ccccc3[nH]2)cc1 [Example 471] | ++ (Between 201% and 300% relative to control)
Cn1c(-c2ccc([N+](=O)[O-])cc2)nc2ccccc21 [Example 472] | + (Up to 200% relative to control)
COc1ccc(OCc2nc3ccccc3[nH]2)cc1 [Example 473] | ++ (Between 201% and 300% relative to control)
Cn1c(COc2ccccc2)nc2ccccc21 [Example 474] | + (Up to 200% relative to control)
Nc1ccc(-c2nc3ccccc3[nH]2)cc1 [Example 475] | + (Up to 200% relative to control)
Nc1ccc2nc(-c3ccc(-c4nc5ccc(N)cc5[nH]4)cc3)[nH]c2c1 [Example 476] | + (Up to 200% relative to control)
O=[N+]([O-])c1ccc(-c2nc3ccccc3o2)cc1 [Example 477] | + (Up to 200% relative to control)
Nc1ccc(-c2nc3ccccc3o2)cc1 [Example 478] | ++ (Between 201% and 300% relative to control)
Cc1ccc(-c2nc3ccccc3s2)cc1N [Example 479] | ++ (Between 201% and 300% relative to control)
Nc1ccc2oc(-c3ccc(Cl)c(Cl)c3)nc2c1 [Example 480] | ++ (Between 201% and 300% relative to control)
CCc1ccc(-c2nc3cc(N)ccc3o2)cc1 [Example 481] | ++ (Between 201% and 300% relative to control)
Cc1cc(C)cc(-c2nc3cc(N)ccc3o2)c1 [Example 482] | + (Up to 200% relative to control)
Oc1ccccc1-c1nc2ccccc2s1 [Example 483] | + (Up to 200% relative to control)
Nc1ccc(-c2nc3ccccc3o2)c(O)c1 [Example 484] | ++ (Between 201% and 300% relative to control)

Compound | Activity
Cc1cc2nc(-c3ccc(N)cc3)oc2cc1C [Example 485] | ++ (Between 201% and 300% relative to control)
CN(C)c1ccc(-c2nc3ccccc3o2)cc1 [Example 486] | + (Up to 200% relative to control)
Nc1ccc2oc(-c3ccc(Cl)cc3)nc2c1 [Example 488] | ++ (Between 201% and 300% relative to control)
Nc1ccc2oc(-c3cccc(Cl)c3)nc2c1 [Example 489] | ++ (Between 201% and 300% relative to control)
Cn1c(-c2ccc(N)cc2)nc2cc(N)ccc21 [Example 490] | + (Up to 200% relative to control)
CN(C)c1ccc(-c2nc3cc(N)ccc3o2)cc1 [Example 491] | ++ (Between 201% and 300% relative to control)
O=[N+]([O-])c1ccc2oc(-c3ccccc3)nc2c1 [Example 492] | ++ (Between 201% and 300% relative to control)
O=C(Cc1cccs1)Nc1ccc(-c2nc3ccccc3[nH]2)cc1 [Example 493] | + (Up to 200% relative to control)
COc1ccc(C(=O)Nc2ccc(-c3nc4ccccc4[nH]3)cc2)cc1OC [Example 494] | + (Up to 200% relative to control)
Clc1ccc(OCc2nc3ccccc3[nH]2)cc1 [Example 495] | + (Up to 200% relative to control)
Nc1ccc2oc(-c3ccc(O)cc3)nc2c1 [Example 496] | ++ (Between 201% and 300% relative to control)
O=C(Nc1ccc(-c2nc3ccccc3[nH]2)cc1)c1ccccc1 [Example 497] | + (Up to 200% relative to control)
CN(C)c1ccc(-c2nc3ccccc3[nH]2)cc1 [Example 498] | + (Up to 200% relative to control)
COCc1nc2ccccc2[nH]1 [Example 499] | + (Up to 200% relative to control)
O=C(Nc1ccccc1-c1nc2ccccc2[nH]1)c1ccc(Cl)cc1Cl [Example 500] | + (Up to 200% relative to control)
O=C(Cc1ccccc1)Nc1ccc(-c2nc3ccccc3[nH]2)cc1 [Example 501] | + (Up to 200% relative to control)
CCc1ccc2oc(-c3cccc(N)c3)nc2c1 [Example 502] | ++ (Between 201% and 300% relative to control)
CC(=O)Nc1cccc(-c2nc3ccccc3[nH]2)c1 [Example 503] | + (Up to 200% relative to control)
O=C(Nc1cccc(-c2nc3ccccc3[nH]2)c1)c1cccs1 [Example 504] | + (Up to 200% relative to control)
Cc1ccc2oc(-c3ccc([N+](=O)[O-])cc3)nc2c1 [Example 505] | ++ (Between 201% and 300% relative to control)
Cc1ccc2nc(-c3ccc(N)cc3)oc2c1 [Example 506] | + (Up to 200% relative to control)
Fc1ccccc1-c1nc2ccccc2[nH]1 [Example 507] | ++ (Between 201% and 300% relative to control)
O=[N+]([O-])c1ccc2[nH]c(-c3ccco3)nc2c1 [Example 508] | + (Up to 200% relative to control)
CN(C)c1ccc(-c2nc3cc([N+](=O)[O-])ccc3[nH]2)cc1 [Example 509] | ++ (Between 201% and 300% relative to control)
Cl.Cl.Nc1ccc2[nH]c(-c3ccco3)nc2c1 [Example 510] | + (Up to 200% relative to control)

Compound | Activity
O=C(Nc1ccccc1-c1nc2ccccc2[nH]1)c1ccc(S(=O)(=O)N2CCCC2)cc1 [Example 511] | + (Up to 200% relative to control)
COc1ccc(-c2nc3cc(N)ccc3o2)cc1 [Example 512] | + (Up to 200% relative to control)
CC(=O)Nc1cccc(-c2nc3ccccc3s2)c1 [Example 513] | + (Up to 200% relative to control)
Clc1cccc(-c2nc3ccccc3[nH]2)c1 [Example 514] | + (Up to 200% relative to control)
COc1ccc(-c2nc3cc(N)ccc3o2)cc1OC [Example 515] | ++ (Between 201% and 300% relative to control)
O=S(=O)(c1ccc(-c2nc3ccccc3s2)cc1)N1CCCCC1 [Example 516] | ++ (Between 201% and 300% relative to control)
CC(=O)Nc1ccc2oc(-c3ccc(Cl)cc3Cl)nc2c1 [Example 517] | ++ (Between 201% and 300% relative to control)
Nc1ccc(-c2nc3cc(Cl)cc(Cl)c3o2)cc1 [Example 518] | ++ (Between 201% and 300% relative to control)
COc1ccc(-c2nc3cc(NC(C)=O)ccc3o2)cc1Cl [Example 519] | ++ (Between 201% and 300% relative to control)
COc1ccc(-c2nc3cc([N+](=O)[O-])ccc3[nH]2)cc1OC [Example 520] | + (Up to 200% relative to control)
COc1ccc(-c2nc3ccccc3n2C)cc1OC [Example 521] | + (Up to 200% relative to control)
COc1ccccc1-c1nc2ccccc2s1 [Example 522] | + (Up to 200% relative to control)
O=[N+]([O-])c1cc(-c2nc3ccccc3s2)ccc1Cl [Example 523] | + (Up to 200% relative to control)
O=[N+]([O-])c1ccc(Cl)c(-c2nc3ccccc3s2)c1 [Example 524] | + (Up to 200% relative to control)
O=[N+]([O-])c1ccc2oc(-c3ccc(F)cc3)nc2c1 [Example 525] | + (Up to 200% relative to control)
Cc1ccc(-c2nc3cc(N)ccc3o2)cc1Cl [Example 526] | ++ (Between 201% and 300% relative to control)
Cc1ccc(-c2nc3cc(N)ccc3o2)c(Cl)c1 [Example 527] | ++ (Between 201% and 300% relative to control)
COc1ccc(OCc2nc3ccccc3n2C)cc1 [Example 528] | ++ (Between 201% and 300% relative to control)
CC(=O)Nc1ccc(-c2nc3cc(C)cc(C)c3o2)cc1 [Example 529] | ++ (Between 201% and 300% relative to control)
c1ccc(-c2nnc(SCc3nc4ccccc4[nH]3)o2)cc1 [Example 530] | + (Up to 200% relative to control)
Cc1ccc(OCc2nc3ccccc3[nH]2)cc1 [Example 531] | ++ (Between 201% and 300% relative to control)
Cc1ccc2[nH]c(-c3ccc(N)cc3)nc2c1 [Example 532] | + (Up to 200% relative to control)
Cc1cccc(-c2nc3cc([N+](=O)[O-])ccc3o2)c1 [Example 533] | ++ (Between 201% and 300% relative to control)
CC(=O)Nc1ccc2[nH]c(-c3ccco3)nc2c1 [Example 534] | + (Up to 200% relative to control)
COc1ccc(-c2nc3cc(N)ccc3[nH]2)cc1 [Example 535] | ++ (Between 201% and 300% relative to control)
